pIC50: −log10 of the molar value.
Experiments:
IKKα/β = test: LPS-induced phosphorylation of IKKα/β in RAW 264.7 cells (Western blot); format: cell-based, murine; conditions: KMU-470 0.5 and 1 μM 30 min, LPS 50 ng/mL 6 h
Description: Figure 5 Effect of KMU-470 on LPS-induced phosphorylation of MAPKs/ IKKs/ NF-κB in RAW 264.7 cells. (A) Cells were pre-treated with 1μM of KMU-470 for 24 h and stimulated with LPS (50 ng/mL) at the indicated times. (C) Cells were pre-treated with 0.5 and 1μM of KMU-470 for 30 min prior to LPS treatment. Total proteins were isolated after 6 h exposure to LPS (50 ng/mL). The protein expression level of MAPKs, p-IKKα/β, and p-NF-κB were assessed using Western blot analyses. (B,D) The relative optical densities of MAPKs, p-IKKα/β, and p-NF-κB bands were analyzed by the Image-J program. *** p < 0.001.
(§1) RAW 264.7 cells were pre-treated with KMU-470 (0.5–1 μM/mL) for 24 h and stimulated with LPS (50 ng/mL) for 6 h. After stimulation, total cells were harvested, washed with PBS buffer, and then the total protein was extracted with a RIPA buffer (0.1 mM sodium orthovanadate, 137 mM NaCl, 15 mM EGTA, 0.1% Triton X-100, 25 mM MOPS, 15 mM MgCl2, 100 μM phenylmethylsulfonyl fluoride, and 20 μM leupeptin, adjusted to pH 7.2). […] Immunoreactive proteins were detected using the ELC Western blot detection system kit (Millipore). Signal intensity was measured using the Chemi Image documentation system (Fusion Fx7, VILBER LOUTMAT). Protein expression levels were quantified using the Image J program.

TLR4 = test: LPS-induced TLR4 protein expression in RAW 264.7 cells (Western blot); format: cell-based, murine; conditions: KMU-470 0.5 and 1 μM 30 min, LPS 6 h
Description: Figure 4 Inhibitory effect of KMU-470 on LPS-induced TLR4 and MyD88 protein expression in RAW 264.7 cells. (A,B) Cells were pre-treated with 0.5 and 1 μM of KMU-470 for 30 min prior to LPS treatment. Then, total protein was isolated after 6 h exposure to LPS. The protein expression level of TLR4 and MyD88 were assessed using Western blot analysis. (C,D) The relative optical densities of TLR4 and MyD88 bands were analyzed by the Image-J program. *** p < 0.001.
as §1, with “7.2). The cell culture media supernatants were precipitated using TCA (trichloroacetic acid, protocol by Luis Sanchez 2001). A BCA protein assay kit (Thermo Scientific, Wilmington, USA) was used for the determination of the protein concentration.” for “7.2).”

iNOS protein = test: LPS-induced iNOS protein expression in RAW 264.7 cells (Western blot); format: cell-based, murine; conditions: KMU-470 0.5 and 1 μM 30 min, LPS 1 μg/mL 24 h
Description: Figure 3 Inhibitory effect of KMU-470 on LPS-induced NO production and iNOS protein expression, and cell viability in RAW 264.7 cells. (A) The cells were pre-treated with KMU-470 at a concentration of 1 μM for 30 min and then treated with different concentrations of LPS for 24 h. Nitrite in the culture supernatant was collected and evaluated using Griess reagent. Absorbance was measured at 540 nm. *** p < 0.001, ** p < 0.01, * p < 0.05. (B) Cells are pre-treated with two different concentrations of KMU-470 (0.5 μM and 1 μM) for 30 min, followed by treatment with 1 μg/mL LPS for 24 h. β-actin was used as an internal control for Western blot analysis. (C) Image-J program was used to analyze the relative optical density of the iNOS band. (D) Cells were treated with various concentrations of KMU-470 for 24 h. […] (E) The cell proliferation rate was determined by cell count using a trypan blue exclusion assay. *p < 0.05 (F) Effect of KMU-470 on cell viability was measured by XTT assay. *** p < 0.001.
RAW 264.7 cells were pre-treated with KMU-470 (0.5–1 μM/mL) for 24 h and stimulated with LPS (50 ng/mL) for 6 h. […] Immunoreactive proteins were detected using the ELC Western blot detection system kit (Millipore). Signal intensity was measured using the Chemi Image documentation system (Fusion Fx7, VILBER LOUTMAT). Protein expression levels were quantified using the Image J program.

IL-1β mRNA = test: LPS-induced IL-1β mRNA expression in RAW 264.7 cells (RT-PCR); format: cell-based, murine; conditions: LPS 50 ng/mL 6 h
Description: Total RNA was isolated, and used to measure the mRNA expression levels of IL-1b and β-actin by RT-PCR analysis. *** p < 0.001, ** p < 0.01. […] (A-C) Cells were treated with KMU-470 for 30 min and stimulated with LPS 50 ng/mL for 6 h. The levels of IL-1β, TNF-α, and IL-6 were determined using real time PCR. *** p < 0.001, *p < 0.05. (D) Cells were pre-treated with 0.1, 0.5, and 1 μM of KMU-470 for 30 min and treated with LPS 50 ng/mL for 6 h, respectively. […] (E) Cells were pre-treated with 0.1, 0.5, and 1 μM of KMU-470 for 30 min and treated with LPS 50 ng/mL for 6 h, respectively. […] Total RNA was isolated using TriZol reagent (Life Technologies; Gaithersburg, MD, USA) according to the manufacturer's protocol. Total RNA absorbance was quantified by using Nanodrop 1000 (Thermo Fisher Scientific, Waltham, MA, USA). […] Real time quantitative PCR was performed by using the SYBR green premix (Roche Diagnostics, Mannheim, Germany) on the LightCycler 480 PCR (system Roche Diagnostics, Mannheim, Germany). The following primer sequences were used: L32 (Housekeeping gene): forward [NT], reverse [NT]-1β; forward [NT], reverse [NT]-α; forward [NT], reverse [NT]-6; forward [NT], reverse [NT].

PIM-2 = molecular target: T1, PIM-2 (Homo sapiens, UniProt Q9P1W9); test: PIM kinase IMAP fluorescence polarization IC50 determination; format: biochemical; conditions: ATP 5 μM; average of two independent experiments; read-out: Inhibitory Activity IC50 PIM-2
T1 construct: purchased Abcam (Cambridge, UK)
Description: (§2) The recombinant PIM kinase, human 5-FAM-labelled Bad peptide substrate, and ATP were prepared in a reaction buffer containing 10 mM HEPES (pH 7.2), 10 mM MgCl2, 0.05% NaN3, 0.01% Triton X-100, and 2 mM DTT. […] Reagents were added to the plate as follows: 2.5 μL compound, 2.5 μL PIM kinase, 2.5 μL ATP, and 2.5 μL 5-FAM-labelled Bad peptide substrate (a final concentration of 100 nM). The final concentrations of ATP in the kinase reactions were 30 μM, 5 μM, and 20 μM for PIM1, PIM2, and PIM3, respectively. […] Kinase reactions were incubated at room temperature for 90 min, and then the reactions were stopped by the addition of 20 μL of IMAP binding reagent (solution containing 75% Buffer A: 25% Buffer B, and a 1 in 600 dilution of beads). After quenching, the plates were incubated at room temperature for 2 h, and then the fluorescence polarization measurements were carried out on an Infinity F200 (Tecan, Männedorf, Zürich, Switzerland). The percentage of inhibition was calculated for each compound concentration and the data were fitted to the equation of a 4-parameter logistic curve. IC50 values were obtained using GraphPad Prism (GraphPad Software, Inc., La Jolla, CA, USA).

PIM-3 = molecular target: T2, PIM-3 (Homo sapiens, UniProt Q86V86); test: as above; format: biochemical; conditions: ATP 20 μM; average of two independent experiments; read-out: Inhibitory Activity IC50 PIM-3
T2 construct: purchased Millipore (Burlington, MA, USA)
Description: as §2

PIM-1 = molecular target: T3, PIM-1 (Homo sapiens, UniProt P11309); test: as above; format: biochemical; conditions: ATP 30 μM; average of two independent experiments; read-out: Inhibitory Activity IC50 PIM-1
T3 construct: purchased Life Technologies (Carlsbad, CA, USA)
Description: as §2

T3 sequence (P11309 whole entry, species assumed): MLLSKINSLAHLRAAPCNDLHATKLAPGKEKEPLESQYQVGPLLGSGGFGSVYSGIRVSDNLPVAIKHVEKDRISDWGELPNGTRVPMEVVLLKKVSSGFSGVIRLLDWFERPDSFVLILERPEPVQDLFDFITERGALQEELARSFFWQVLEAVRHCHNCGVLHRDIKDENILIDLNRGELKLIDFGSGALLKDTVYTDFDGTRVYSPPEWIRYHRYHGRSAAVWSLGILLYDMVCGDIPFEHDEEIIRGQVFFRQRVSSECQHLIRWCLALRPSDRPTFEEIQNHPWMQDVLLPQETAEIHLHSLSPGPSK
T1 sequence (Q9P1W9 whole entry, species assumed): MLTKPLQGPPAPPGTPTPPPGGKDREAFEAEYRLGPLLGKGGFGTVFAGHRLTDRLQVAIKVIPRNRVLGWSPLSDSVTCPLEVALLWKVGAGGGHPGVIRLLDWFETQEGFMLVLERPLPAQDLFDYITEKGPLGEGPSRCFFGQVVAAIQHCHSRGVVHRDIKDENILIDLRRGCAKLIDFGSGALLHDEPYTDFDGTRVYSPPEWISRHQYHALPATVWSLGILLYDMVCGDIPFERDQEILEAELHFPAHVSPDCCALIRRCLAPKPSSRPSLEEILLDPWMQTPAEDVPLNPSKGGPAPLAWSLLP

pIC50 (PIM-2): 6.66
pIC50 (PIM-3): 8.16
pIC50 (PIM-1): 8.25
Structure (SMILES): CN(C)CCNc1cncc(-c2ccc3c(c2)/C(=C/c2cnc[nH]2)C(=O)N3)n1 [KMU-470, (Z)-3-((1H-Imidazol-5-yl)methylene)-5-(6-((2-(dimethylamino)ethyl)amino)pyrazin-2-yl)indolin-2-one]
LPS-induced phosphorylation of IKKα/β (IKKα/β): significantly reduced
Up-regulation of TLR4 protein by LPS (TLR4): suppressed
LPS-induced up-regulation of iNOS protein (iNOS protein): attenuated
LPS-induced up-regulation of IL-1β mRNA expression (IL-1β mRNA; 1 µM compound, pre-treatment 1 h, RT-PCR (Figure 2B)): significantly inhibited
LPS-induced up-regulation of IL-1β (mRNA) (IL-1β mRNA; KMU-470 30 min, real time PCR (Figure 6A)): significantly decreased

— publication PMC7403980, “Anti-Inflammatory Effects of the Novel PIM Kinase Inhibitor KMU-470 in RAW 264.7 Cells through the TLR4-NF-κB-NLRP3 Pathway” (International Journal of Molecular Sciences, 2020)
